Laboratory results as given in patent publication US5250570A, “Amidobenzene derivatives, compositions and use” (Imperial Chemical Industries PLC, priority 1990, dated 1993).

Columns and labels:
aldose reductase [1] = assay: Reduction of sciatic nerve sorbitol levels in streptozotocin-diabetic rats (inhibition of aldose reductase in vivo); set-up: species or system rat; conditions: 5 daily oral doses of 3 mg/kg
Method: Rats are made diabetic (as evidenced by severe glucosuria being present) by dosing with streptozotocin. The animals are then dosed daily with the test compound for one, two or five days. The animals are then sacrificed 2-6 hours after the final dose and the eye lenses and/or sciatic nerves are removed. After a standard work-up procedure the residual sorbitol levels in each tissue are determined by gas liquid chromatography after conversion to the polytrimethylsilyl derivatives. Inhibition of aldose reductase in vivo can then be assessed by comparing the residual sorbitol levels in tissues from the dosed diabetic group of rats with those of an undosed group of diabetic rats and an undosed group of normal rats.
In a variation of the above test diabetic rats are dosed at a fixed daily oral dose for five days and then sacrificed 6 hours after the final dose and the reduction of sciatic nerve sorbitol assessed relative to that in control animals.

aldose reductase [2] = biological target: T1, aldose reductase (Bos taurus, UniProt P16116); assay: In vitro inhibition of partially purified bovine lens aldose reductase (spectrophotometric); type: biochemical; conditions: partially purified aldose reductase from bovine lenses
T1 construct: partially purified aldose reductase is isolated in known manner from bovine lenses; from tissue; host or cells: bovine lens
Text: Thus, in a standard procedure partially purified aldose reductase is isolated in known manner from bovine lenses. The percentage inhibition of this enzyme's ability in vitro to catalyse the reduction of aldoses to polyhydric alcohols, and particularly to reduce glucose to sorbitol, caused by a test compound can then be determined using standard spectrophotometric methods.

SMILES: Cc1cc(NC(=O)COc2ccccc2)cc(C)c1S(=O)(=O)C[N+](=O)[O-] [Example 1, (2,6-dimethyl-4-[2-phenoxyacetamido]phenylsulfonyl)nitromethane]
- reduction in sciatic nerve sorbitol levels (aldose reductase [1]): 78%
- IC50 (aldose reductase [2]): 44 nM
